The text below walks through data of ChEMBL document CHEMBL2046422, “Structure-activity relationship of nonacidic quinazolinone inhibitors of human microsomal prostaglandin synthase 1 (mPGES 1)” (J Med Chem, 2012).

Assay [1] is described as follows: Inhibition of rat recombinant mPGES-1.
The next assay has as its target T1, Prostaglandin E synthase (Homo sapiens, UniProt O14684).
T1 sequence (O14684 whole entry): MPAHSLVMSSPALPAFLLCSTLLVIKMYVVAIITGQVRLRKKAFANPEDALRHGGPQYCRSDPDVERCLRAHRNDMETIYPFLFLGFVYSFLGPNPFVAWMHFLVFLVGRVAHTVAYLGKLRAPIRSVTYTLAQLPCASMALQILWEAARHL
Description: Inhibition of human recombinant mPGES-1.

Take `O=C(Nc1ccc(-c2ccc(Cl)c(Cl)c2)cc1)C1=C(O)c2ccccc2S(=O)(=O)N1`: the IC50 in assay [1] was 1080 nM; at Prostaglandin E synthase, 16.5 nM.

What is called IC50 is the concentration needed to halve the response being measured.
